Measured values taken from patent US20040224937A1, “Use of protein kinase C inhibitor for suppressing sustained slow postsynaptic excitation (SSPE)” (Pfizer Inc, priority 2003, published 2004).
“Also recorded” adds a separate entry of the source.

How the values were obtained:
[1] = tested on: myenteric intrinsic primary afferent neurons (IPANs; AH neurons); assay: Sustained slow postsynaptic excitation (SSPE) evoked by 1 Hz, 4 min stimulation of synaptic inputs; intracellular recording in ileum myenteric plexus; format: cell-based, guinea pig; details: for effect on the excitability increase associated with SSPE: stimulation of presynaptic inputs 1 Hz for 4 min
Text: (§1) Guinea pigs from the inbred Hartley strain colony of the Department of Anatomy and Cell Biology at the University of Melbourne were used. All efforts were made to minimize animal suffering and numbers of animals used. The experiments conformed to National Health and Medical Research Council of Australia guidelines and were approved by the University of Melbourne Animal Experimentation Ethics Committee. Guinea pigs of either sex (180-250 g) were stunned by a blow to the head and killed by severing the carotid arteries and spinal cord, and segments of ileum were removed into physiological saline. The segments were placed in a recording dish lined with silicone elastomer, opened along the line of the mesenteric attachment and pinned flat under moderate tension with the mucosa uppermost. During dissection, the tissue was immersed in physiological saline (composition in mM: NaCl 118, KCl 4.8, NaHCO3 25, NaH2PO4 1.0, MgSO4 1.2, glucose 11.1, CaCl2 2.5) and kept at room temperature. The mucosa, submucosa and circular smooth muscle were removed to expose the myenteric plexus. The recording dish (volume 4 mL) was then placed on the stage of an inverted microscope and continuously superfused (4 mL/min) with physiological saline that had been preheated to yield a bath temperature of 35-37° C. The superperfusion solution was bubbled with 95% O2 and 5% CO2 and contained nicardipine (3 μM) and hyoscine (1 μM) to inhibit muscle movement. The tissue was equilibrated with the perfusate for 1-2 h before recording was commenced.
(§2) Individual neurons were impaled using conventional intracellular microelectrodes (resistance, […]) filled with 1 M KCl. Signals were amplified using an AxoClamp 2B amplifier (Axon instruments, Foster City, Calif., USA), digitized at 5-20 kHz and stored using PC-based data acquisition software (Axoscope 8.0). Measurements were made after allowing the impalements to stabilize for at least 15 min without applying intracellular holding current. Neurons were identified as AH cells based on the presence of a hump on the falling phase of the action potential and, in most cells, a late after-hyperpolarising potential following the action potential. Stimuli were applied to inter-ganglionic connectives at a frequency of 1 Hz, via a fine tungsten stimulating electrode (tip diameter<50 μm) that was placed on a circumferentially located internodal strand adjacent to the ganglion. Pulses were 0.1 ms in duration and <0.3 mA in intensity.
(§3) Neuronal excitability was assessed, by injecting 500 ms depolarizing current pulses (0.05-0.2 nA). The depolarizing pulses were delivered at intervals of 40 s. The mean excitability was evaluated by averaging the numbers of action potentials evoked by the 6 depolarizing current pulses for periods of 4 min, prior to the 1 Hz stimulus, around the peak of the response, and for a period of 4 min after the end of the stimulus. To determine input resistance (Rin), small hyperpolarizing current pulses (duration 100 ms; intensity<0.02 nA) were injected before each depolarizing pulse. The membrane potential (MP) was sampled each 40 s. MP, Rin, and numbers of action potentials in response to depolarizing pulses were determined.

[2] = tested on: myenteric intrinsic primary afferent neurons (IPANs; AH neurons); assay: Direct effect of compounds on excitability, membrane potential, input resistance and action potentials of AH neurons (no or before presynaptic stimulation); format: cell-based, guinea pig
Text: as §1, §2, §3

[H]/N=C(/N)SCCCn1cc(C2=C(c3cn(C)c4ccccc34)C(=O)NC2=O)c2ccccc21 [RO31-8220, 3-[1-[3-(Amidinothio)propyl-1H-indol-3-yl]-3-(1-methyl-1H-indol-3-yl)maleimide Bisindolylmaleimide IX, methanesulfonate]
effect on the excitability increase associated with SSPE ([1]; 1 μM): not reduced | effect on the excitability increase associated with SSPE ([1]; 3.3 μM, n=6, P<0.1): reduced the degree to which the excitability increased; also recorded: reduction in the increase of AH neuron excitability | effect on antidromic action potential generation ([2]; 3.3 μM): did not cause a depression | effect on excitability, membrane potential or input resistance before stimulation of presynaptic inputs ([2]; 3.3 μM, 15 min exposure): without affecting | effect on antidromic action potentials ([2]; 10 μM, restored by increasing stimulus strength): sometimes suppressed

CCCC(=O)O[C@@H]1[C@@H](C)[C@@]2(O)[C@@H](C=C(CO)C[C@]3(O)C(=O)C(C)=C[C@@H]23)[C@@H]2C(C)(C)[C@]12OC(=O)CCC [PDBu, phorbol 12, 13 dibutyrate]
effect on excitability of the neuron ([2]; 1 μM, example neuron, FIG. 5A): increased the excitability | depolarization ([2]; 1 μM, example neuron, FIG. 5B): about 8 mV | increase of input resistance ([2]; 1 μM, example neuron, FIG. 5C): about 100 MΩ | amplitude of the after-hyperpolarizing potential (AHP) during exposure ([2]; 0.2-1 μM in bath for 5-10 min): decreased | duration of effect beyond washing out of the compound ([2]; 0.2-1 μM in bath for 5-10 min): ≥ 10 min

CN[C@@H]1C[C@H]2O[C@@](C)([C@@H]1OC)n1c3ccccc3c3c4c(c5c6ccccc6n2c5c31)C(=O)NC4 [staurosporine]
decrease of the peak change in excitability during SSPE ([1]; 1 μM, stimulation 1 Hz for 4 min, n=6, P<0.01 vs control): about 75% | effect on the excitability increase associated with SSPE ([1]; 1 μM): significantly smaller or no increase in neuronal excitability | effect on excitability, membrane potential or input resistance before stimulation of presynaptic inputs ([2]; 1 μM, about 15-25 min exposure): did not cause any change

O=S(=O)(NCCNC/C=C/c1ccc(Br)cc1)c1cccc2cnccc12 [H89]
effect on the excitability increase associated with SSPE ([1]; 1 μM): no effect; also recorded: not changed | effect on excitability, membrane potential or input resistance before stimulation of presynaptic inputs ([2]; 1 μM, about 15-25 min exposure): no changes

calphostin C
reversal of excitability already enhanced by successive stimuli (maintenance of SSPE) ([1]; 1 μM, added after SSPE had been enhanced): did not restore excitability to its pre-stimulus level | effect on the excitability increase associated with SSPE ([1]; 1 μM): blocked | effect on the excitability increase associated with SSPE ([1]; 1 μM, listed as Calphostin C): substantially reduced | effect on excitability, membrane potential or input resistance before stimulation of presynaptic inputs ([2]; 1 μM, about 15-25 min exposure): did not affect
